In brackets after ≈: the same amount, converted by molar mass. Marks after values point to notes of the source that are not given here.
Assays:
[1] = Nonparticulate PBPK modeling of SNX-2112 disposition in rats; assay type: in vivo; conditions: estimated by nonparticulate PBPK modeling
[2] = Solubility of SNX-2112 in water and oil; assay type: physicochemical
[3] = after oral administration; cited from earlier work

## CC1(C)CC(=O)c2c(C(F)(F)F)nn(-c3ccc(C(N)=O)c(N[C@H]4CC[C@H](O)CC4)c3)c2C1 [SNX-2112]
[1]
  CLH (hepatic clearance): 0.0246 ^a L/h
[2]; soybean oil, oil or lipid
  solubility: 5 µg/mL (≈ 10.8 µM)
[2]; water
  solubility: 8 µg/mL (≈ 17.2 µM)
[3]
  oral bioavailability: hardly bioavailable
